Where “and” joins values, the source holds several entries; their conditions need not be identical. Identical values can stand only once. Entries after “also recorded” stand apart in the source; their conditions may differ.
Tests used:
[1] = system: male Sprague-Dawley rats; experiment: Histopathology of liver after dosing galactosamine HCl; format: in vivo, rat; settings: for histopathological changes: 200 mg/kg i.p.
Excerpt: (§1) Thirty young adult age-matched male Sprague-Dawley rats were obtained from Charles River, France. After observation to ensure that they each appeared healthy they were placed in individual metabolism cages with free access to water and a standard commercial laboratory diet (diet AO4C from Usine d'Alimentation Rationnelle, Villemoisson-sur-Orge, France). The laboratory temperature was maintained at 20.+−−.2 degrees C. and the relative humidity at 60.±.20%. The laboratory air was filtered and changed 14 times per hour. A fixed ‘12 hours light-12 hours dark’ cycle was imposed. The study commenced after a short period of cage ‘acclimatisation’. At the time of dosing (at the start of day 1) the growing rats were each approximately 260 g in mass. Galactosamine (abbreviated GaIN) HCl (from Sigma, France) was dissolved in physiological saline and dosed by intraperitoneal injection at either 200 mg/kg or at 800 mg/kg; ten animals (nos. 101-110) received the low dose and ten animals (nos. 201-210) received the high dose. Ten control animals (nos. 1-10) received an oral dose of corn oil. Five of each group of ten rats were euthanased by means of CO2 on day 2 with the remainder being euthanased by the same technique on day 8. The early-euthanased rats were numbers 6-10, 106-110 and 206-210. The late-euthanased rats were numbers 1-5, 101-105 and 201-205. Blood was sampled from the orbital sinus, under isoflurane anaesthesia. Blood was sampled from all animals on day −3 and just prior to euthanasia on either day 2 or day 8. Following euthanasia each rat was sampled for histopathological examination with the sampling including taking ten liver samples from each rat (two from each liver lobe). The blood samples were collected into vials containing lithium heparin as anticoagulant and immediately centrifuged at approx. minus four degrees C. to separate plasma. A portion of each plasma sample was analysed at thirty degrees C. on an AU600 multiparametric clinical analyser (Olympus) for a range of clinical chemistry parameters including alanine aminotransferase (ALT) and aspartate aminotransferase (AST) amongst many others.

[2] = system: male Sprague-Dawley rats; experiment: 1H NMR of post-dose urine after dosing galactosamine HCl (galactosamine excretion, endogenous metabolite changes, responder classification); format: in vivo, rat
Description: At the time of dosing (at the start of day 1) the growing rats were each approximately 260 g in mass. Galactosamine (abbreviated GaIN) HCl (from Sigma, France) was dissolved in physiological saline and dosed by intraperitoneal injection at either 200 mg/kg or at 800 mg/kg; ten animals (nos. 101-110) received the low dose and ten animals (nos. 201-210) received the high dose. Ten control animals (nos. 1-10) received an oral dose of corn oil.
Pre- and post-dose urine samples were collected for 7 hours daily into ice-cooled vessels containing sodium azide (0.100 ml of a 10% (w/v) solution of sodium azide in water) as an antibacterial preservative. There was an additional overnight urine collection on the day of dosing (from 7-24 hours post-dose). The urine collection apparatus was cleaned prior to each collection to minimise bacterial, food and faecal contamination. The urine samples were deep-frozen pending NMR analysis.
Urine samples were prepared for NMR analysis by mixing 400 Eli of urine with 200 μl of phosphate buffer (an 81:19 (v/v) mixture of 0.2 M Na2HPO4 and 0.2 M NaH2PO4; pH 7.4); if insufficient urine was available the shortfall was made up with purified water with a minimum of 200 μl of urine being used. The urine-buffer mixture was left to stand for 10 minutes at room temperature to enable buffering to take place and then centrifuged at 13,000 rpm for a further 10 minutes to remove suspended particulates. 500 μl of ‘clear’ buffered urine was transferred to an NMR tube and 50 μl of a TSP/D2O solution added. TSP (sodium 3-trimethylsilyl-[2,2,3,3-^2H4]-1-propionate) is a chemical shift reference compound (δ 0) used in the NMR experiment and the D2O provided a field/frequency lock for the NMR spectrometer. The concentration of the TSP/D2O solution was such as to give a final TSP concentration of 0.1 mM in the NMR tube. The NMR analyses were carried out at thirty degrees C. on a Bruker AMX 600 MHz NMR spectrometer with the NOESYPRESAT pulse sequence (Claridge, 1999) used to reduce the size of the water signal. The principal acquisition parameters were:
After acquisition, the NMR spectra were Fourier-transformed into 32768 data points following application of 0.3 Hz line-broadening by means of an exponential multiplication applied to the free induction decay signal. The spectra were phased to give an even baseline around the NMR signals and the chemical shift scale was set by assigning the value of δ 0 to the TSP peak. Prior to data-reduction, the baseline of each day −1 spectrum was moved to zero intensity using a straight-line baseline correction algorithm. All these spectral processing operations were carried out on a Silicon Graphics computer using the ‘xwinnmr’ software (Bruker GmBH).
On the basis of this visual examination, animals could be readily categorised as either (i) ‘responders’ or (ii) as ‘weak or non-responders’.

[3] = system: male Sprague-Dawley rats; experiment: Clinical chemistry analysis of plasma after dosing galactosamine HCl; format: in vivo, rat; settings: plasma 24 hours post-dosing
Description: as §1, with “At” for “Thirty young adult age-matched male Sprague-Dawley rats were obtained from Charles River, France. After observation to ensure that they each appeared healthy they were placed in individual metabolism cages with free access to water and a standard commercial laboratory diet (diet AO4C from Usine d'Alimentation Rationnelle, Villemoisson-sur-Orge, France). The laboratory temperature was maintained at 20.+−−.2 degrees C. and the relative humidity at 60.±.20%. The laboratory air was filtered and changed 14 times per hour. A fixed ‘12 hours light-12 hours dark’ cycle was imposed. The study commenced after a short period of cage ‘acclimatisation’. At”

[4] = system: male Sprague-Dawley rats; format: in vivo; settings: 200 mg/kg i.p., individual animals 101-110
Description: Dosing was on the day designated as ‘day 1’ when the growing rats were each approximately 250 g in mass. Isoniazid (from Sigma, France) was dissolved in physiological saline and dosed by intraperitoneal injection at either 200 mg/kg or at 400 mg/kg; ten animals (nos. 101-110) received the low dose and ten animals (nos. 201-210) received the high dose. Ten control animals (nos. 1-10) received an intraperitoneal injection of saline.
It was intended that post-dose blood samples would be taken immediately before euthanasia with euthanasia being immediately followed by sampling for histopathology. As in Example 1, the intention was that five of each group of ten rats would be euthanased by means of CO2 at one day after dosing thereby providing early blood and histopathology samples; the remainder were to be euthanased by the same technique at seven days after dosing thereby providing late blood and histopathology samples. It was planned that the early-euthanased rats would be numbers 6-10, 106-110 and 206-210 whilst the late-euthanased rats would be numbers 1-5, 101-105 and 201-205. […] The urine samples were deep-frozen pending NMR analysis. […]

[5] = 200 mg/kg i.p., animals 101-105
[6] = 800 mg/kg i.p., animals 201-205, hydrochloride
[7] = 800 mg/kg i.p., day 2 and day 3, animals 201 and 202
[8] = 800 mg/kg i.p., day 3, animals 201 and 202
[9] = 800 mg/kg i.p., day 3, animals 201 and 202, hydrochloride
[10] = 200 mg/kg i.p., individual animals 106-110, hydrochloride
[11] = 800 mg/kg i.p., individual animals 206-210, hydrochloride

Cl.N[C@H]1C(O)O[C@H](CO)[C@H](O)[C@@H]1O (stereo partly shown) [galactosamine HCl, galactosamine hydrochloride]
histopathological changes ([1]; day 2): No differences | histopathological changes ([1]; day 8): No differences | animals with multifocal randomly scattered foci of hepatocellular necrosis ([1]; 800 mg/kg i.p., day 2): hepatocellular necrosis were present in 4/5 | severity of changes (hepatocellular necrosis) ([1]; 800 mg/kg i.p., day 2, individual animals 206-210, hydrochloride): 207 - mild and 206, 210 - marked and 209 - severe and 208 - none | animals with minimal bile duct hyperplasia ([1]; 800 mg/kg i.p., day 8): Minimal bile duct hyperplasia was found in 2/5 | urinary creatine [2, 5]: Creatine: no increase | urinary taurine [2, 5]: instances of raised | urinary 2-oxoglutarate [2, 6]: 2-Oxoglutarate: Animals 203-205 showed no obvious change and reduced levels on days 2 and 3 but very high levels on day 7. | urinary taurine [2, 6]: increases; also recorded: Taurine: Animals 203-205 showed no clear change whilst; also recorded: animals 201 & 202 showed highly elevated levels | urinary guanidinoacetic acid (GAA) ([2]; 800 mg/kg i.p., animals 201 and 202, hydrochloride): increases; also recorded: very much increased levels on day 3 and perhaps somewhat | urinary betaine ([2]; 800 mg/kg i.p., day 2 and day 3, animals 201 & 202, hydrochloride): increases; also recorded: Betaine: appeared very clearly in the day 2 and day 3 samples | urinary glucose [2, 7]: Glucose: appeared to be elevated in the day 2 and day 3 | urinary urocanic acid [2, 7]: Urocanic acid: appeared clearly in the day 2 and day 3 | urinary glutamate and glutamine ([2]; 800 mg/kg i.p., day 3, animal 201): Glutamate and glutamine were elevated in the day 3 urine | urinary histidine ([2]; 800 mg/kg i.p., day 3, animal 201, hydrochloride): increased excretion | urinary trimethylamine-N-oxide (TMAO) ([2]; 800 mg/kg i.p., day 3, animals 201 & 202, hydrochloride): decreases; also recorded: levels, TMAO had essentially disappeared from the day 3 | urinary bile acids (seen as C18 methyl) [2, 8]: Bile acids: clearly increased (seen as C18 methyl) in the day | urinary threonine [2, 8]: Threonine: was very clearly elevated in the day 3 samples | urinary creatine [2, 9]: increases; also recorded: Creatine: Only animals 201 and 202 showed a clear increase | urinary hippurate [2, 9]: decreased excretion; also recorded: Hippurate: was depleted in the day 3 samples from animals | Total amount of galactosamine excreted in the urine from 0-24 hours post-dosing ([2]; 800 mg/kg i.p., individual animals 201-210, hydrochloride): 40.0 mg and 26.2 mg and 0.4 mg and 0.1 mg and 0.3 mg and 14.9 mg and 8.4 mg and 2.3 mg and 28.2 mg and 30.5 mg | GGT (γ-glutamyl transferase) ([3]; 200 mg/kg i.p., individual animals 106-110): 0 IU/L | 5′-NT (5-nucleotidase) [3, 10]: 23 IU/L and 21 IU/L (2×) and 19 IU/L and 27 IU/L | A/G (albumin/globulin ratio) [3, 10]: 1.3 and 1.4 (3×) and 1.5 | ALAT (alanine aminotransferase) [3, 10]: 43 IU/L and 46 IU/L and 49 IU/L and 38 IU/L and 47 IU/L | ALB (albumin) [3, 10]: 33 g/L (3×) and 37 g/L and 34 g/L | AP (alkaline phosphatase) [3, 10]: 606 IU/L and 495 IU/L and 566 IU/L and 697 IU/L and 637 IU/L | ASAT (aspartate aminotransferase) [3, 10]: 107 IU/L and 84 IU/L and 73 IU/L and 67 IU/L and 75 IU/L | BILI (bilirubin) [3, 10]: 0.09 mg/dL and 0.05 mg/dL and 0.11 mg/dL and 0.1 mg/dL and 0.12 mg/dL | CHOL (total cholesterol) [3, 10]: 73 mg/dL and 60 mg/dL and 91 mg/dL and 72 mg/dL and 81 mg/dL | CREA (creatinine) [3, 10]: 0.5 mg/dL (4×) and 0.4 mg/dL | GLUC (glucose) [3, 10]: 173 mg/dL and 184 mg/dL and 167 mg/dL and 138 mg/dL and 182 mg/dL | PROT (total protein) [3, 10]: 59 g/L and 56 g/L and 61 g/L and 58 g/L and 57 g/L | TBA (total bile acids) [3, 10]: 48.0 μmol/L and 22.0 μmol/L and 29.0 μmol/L (2×) and 23.0 μmol/L | TRIG (triglycerides) [3, 10]: 94 mg/dL and 158 mg/dL and 140 mg/dL and 109 mg/dL and 127 mg/dL | UREA (urea) [3, 10]: 29 mg/dL and 40 mg/dL and 33 mg/dL and 28 mg/dL (2×) | 5′-NT (5-nucleotidase) [3, 11]: 156 IU/L and 23 IU/L and 17 IU/L and 203 IU/L and 35 IU/L | A/G (albumin/globulin ratio) [3, 11]: 1.7 and 2.1 and 1.5 and 2.4 and 1.8 | ALAT (alanine aminotransferase) [3, 11]: 2350 IU/L and 178 IU/L and 45 IU/L and 4300 IU/L and 479 IU/L | ALB (albumin) [3, 11]: 32 g/L and 33 g/L (2×) and 34 g/L and 31 g/L | AP (alkaline phosphatase) [3, 11]: 787 IU/L and 983 IU/L and 666 IU/L and 999 IU/L and 852 IU/L | ASAT (aspartate aminotransferase) [3, 11]: 4320 IU/L and 264 IU/L and 79 IU/L and 10600 IU/L and 832 IU/L | BILI (bilirubin) [3, 11]: 1.26 mg/dL and 0.06 mg/dL and 0.11 mg/dL and 1.37 mg/dL and 0.12 mg/dL | CHOL (total cholesterol) [3, 11]: 60 mg/dL and 15 mg/dL and 61 mg/dL and 42 mg/dL and 46 mg/dL | CREA (creatinine) [3, 11]: 0.4 mg/dL (4×) and 0.5 mg/dL | GGT (γ-glutamyl transferase) [3, 11]: 2 IU/L and 0 IU/L (2×) and 5 IU/L and 1 IU/L | GLUC (glucose) [3, 11]: 100 mg/dL and 162 mg/dL and 168 mg/dL and 80 mg/dL and 130 mg/dL | PROT (total protein) [3, 11]: 51 g/L and 49 g/L and 56 g/L and 47 g/L and 48 g/L | TBA (total bile acids) [3, 11]: 493 µmol/L and 43.0 µmol/L and 20.0 µmol/L and 1300 µmol/L and 65.0 µmol/L | TRIG (triglycerides) [3, 11]: 38 mg/dL (2×) and 89 mg/dL and 148 mg/dL and 95 mg/dL | UREA (urea) [3, 11]: 45 mg/dL and 24 mg/dL and 29 mg/dL and 40 mg/dL and 25 mg/dL

NNC(=O)c1ccncc1 [isoniazid]
Premature Death? [4]: No

Source: US8577617B2, “Metabolic phenotyping” (priority 2002, dated 2013)
